Reference: the NIST ThermoML archive (doi:10.1021/je6005168)
Numbers after ± are expanded uncertainties.

Experiment: molar heat capacity at constant pressure
Conditions: 101.33 kPa, Crystal, Small sample (50 mg) DSC

Structure (SMILES) | molar heat capacity at constant pressure (298.15 K) [J/K/mol] | molar heat capacity at constant pressure (303.15 K) [J/K/mol] | molar heat capacity at constant pressure (308.15 K) [J/K/mol] | molar heat capacity at constant pressure (313.15 K) [J/K/mol] | molar heat capacity at constant pressure (318.15 K) [J/K/mol] | molar heat capacity at constant pressure (323.15 K) [J/K/mol] | molar heat capacity at constant pressure (328.15 K) [J/K/mol] | molar heat capacity at constant pressure (333.15 K) [J/K/mol] | molar heat capacity at constant pressure (338.15 K) [J/K/mol] | molar heat capacity at constant pressure (343.15 K) [J/K/mol]
Cn1c(N)cc(=O)[nH]c1=O [6-amino-1-methyluracil] | 166.2 ± 3.3 | 167 ± 3.3 | 168 ± 3.4 | 168.5 ± 3.4 | 169.2 ± 3.4 | 170 ± 3.4 | 171 ± 3.4 | 171.4 ± 3.4 | 172.2 ± 3.4 | 173 ± 3.5
Nc1cc(O)nc(O)n1 [6-aminouracil] | 147 ± 2.9 | 147.6 ± 3 | 148.2 ± 3 | 149 ± 3 | 149.6 ± 3 | 150.3 ± 3 | 151 ± 3 | 151.6 ± 3 | 152.3 ± 3 | 153 ± 3.1
Cn1c(N)cc(=O)n(C)c1=O [6-amino-1,3-dimethyluracil] | 189 ± 3.8 | 191 ± 3.8 | 193.1 ± 3.9 | 195.2 ± 3.9 | 197.3 ± 3.9 | 199.5 ± 4 | 201.6 ± 4 | 204 ± 4.1 | 206 ± 4.1 | 208 ± 4.2
Nc1c[nH]c(=O)[nH]c1=O [2,4(1H,3H)-pyrimidinedione, 5-amino-] | 145 ± 2.9 | 145.5 ± 2.9 | 146.2 ± 2.9 | 147 ± 2.9 | 148 ± 3 | 148.4 ± 3 | 149.1 ± 3 | 150 ± 3 | 150.6 ± 3 | 151.3 ± 3
